# According to patent US20080039482A1, “SULFONAMIDO-MACROCYCLES AS TIE2 INHIBITORS AND SALTS THEREOF, PHARMACEUTICAL COMPOSITIONS COMPRISING SAME, METHODS OF PREPARING SAME AND USES OF SAME” (priority 2006, published 2008):
# Experiments:
# [1] = target: Tie2 (Homo sapiens, UniProt Q02763); test: Tie-2-Kinase HTRF-Assay without kinase preactivation (assay 2); type: biochemical; parameters: fusion protein of GST and the intracellular domains of Tie-2; GST; made in house; host or cells: insect cells (Hi-5); settings: 10 μM ATP, pIC50 = -log IC50 in molar concentration
# Excerpt: Tie2-inhibitory activity of compounds of the present invention was quantified employing two Tie2 HTRF assay as described in the following paragraphs.
# A recombinant fusion protein of GST and the intracellular domains of Tie-2, expressed in insect cells (Hi-5) and purified by Glutathion-Sepharose affinity chromatography was used as kinase. Alternatively, commercially available GST-Tie2-fusion protein (Upstate Biotechnology, Dundee, Scotland) can be used As substrate for the kinase reaction the biotinylated peptide biotin-Ahx-EPKDDAYPLYSDFG (C-terminus in amid form) was used which can be purchased e.g. from the company Biosynthan GmbH (Berlin-Buch, Germany). Detection of phosphorylated product is achieved specifically by a trimeric detection complex consisting of the phosphorylated substrate, streptavidin-XLent (SA-XLent) which binds to biotin, and Europium Cryptate-labeled anti-phosphotyrosine antibody PT66 which binds to phosphorylated tyrosine.
# Tie-2 (3.5 ng/measurement point) was incubated for 60 min at 22° C. in the presence of 10 μM adenosine-tri-phosphate (ATP) and 1 μM substrate peptide (biotin-Ahx-EPKDDAYPLYSDFG-NH2) with different concentrations of test compounds (0 μM and concentrations in the range 0.001-20 μM) in 5 μl assay buffer [50 mM Hepes/NaOH pH 7, 10 mM MgCl2, 0.5 mM MnCl2, 1.0 mM dithiothreitol, 0.01% NP40, protease inhibitor mixture (“Complete w/o EDTA” from Roche, 1 tablet per 2.5 ml), 1% (v/v) dimethylsulfoxide]. The reaction was stopped by the addition of 5 μl of an aqueous buffer (25 mM Hepes/NaOH pH 7.5, 0.28% (w/v) bovine serum albumin) containing EDTA (90 mM) and the HTRF (Homogeneous Time Resolved Fluorescence) detection reagents streptavidine-XLent (0.2 μM, from Cis Biointernational, Marcoule, France) and PT66-Eu-Chelate (0.3 ng/μl; a europium-chelate labelled anti-phospho-tyrosine antibody from Perkin Elmer).
# The resulting mixture was incubated 1 h at 22° C. to allow the binding of the biotinylated phosphorylated peptide to the streptavidine-XLent and the PT66-Eu-Chelate. Subsequently the amount of phosphorylated substrate peptide was evaluated by measurement of the resonance energy transfer from the PT66-Eu-Chelate to the streptavidine-XLent. Therefore, the fluorescence emissions at 620 nm and 665 nm after excitation at 350 nm was measured in a HTRF reader, e.g. a Rubystar (BMG Labtechnologies, Offenburg, Germany) or a Viewlux (Perkin-Elmer). The ratio of the emissions at 665 nm and at […] was taken as the measure for the amount of phosphorylated substrate peptide. The data were normalised (enzyme reaction without inhibitor=0% inhibition, all other assay components but no enzyme=100% inhibition) and IC50 values were calculated by a 4 parameter fit using an inhouse software.
# [2] = target: T1, CDK2/CycE (Homo sapiens, UniProt P24941); test: CDK2 HTRF assay (assay 4); type: biochemical; settings: IC50 assay 4/IC50 assay 2
# T1 construct: GST; purchased ProQinase GmbH (Freiburg, Germany); host or cells: insect cells (Sf9)
# Excerpt: CDK2/CycE-inhibitory activity of compounds of the present invention was quantified employing the CDK2/CycE HTRF assay as described in the following paragraphs.
# Recombinant fusion proteins of GST and human CDK2 and of GST and human CycE, expressed in insect cells (Sf9) and purified by Glutathion-Sepharose affinity chromatography, were purchase from ProQinase GmbH (Freiburg, Germany). As substrate for the kinase reaction biotinylated peptide biotin-Ttds-YISPLKSPYKISEG (C-terminus in amid form) was used which can be purchased e.g. form the company JERINI peptide technologies (Berlin, Germany).
# CDK2/CycE was incubated for 60 min at 22° C. in the presence of different concentrations of test compounds in 5 μl assay buffer [50 mM Tris/HCl pH 8.0, 10 mM MgCl2, 1.0 mM dithiothreitol, 0.1 mM sodium ortho-vanadate, 10 μM adenosine-tri-phosphate (ATP), 0.75 μM substrate, 0.01% (v/v) Nonidet-P40 (Sigma), 1% (v/v) dimethylsulfoxide]. The concentration of CDK2/CycE was adjusted depending of the activity of the enzyme lot and was chosen appropriate to have the assay in the linear range, typical concentrations were in the range of 1 ng/ml. The reaction was stopped by the addition of 5 μl of a solution of HTRF detection reagents (0.2 μM streptavidine-XLent and 3.4 nM Phospho-(Ser) CDKs Substrate Antibody [product #2324B, Cell Signalling Technology, Danvers, Mass., USA} and 4 nM Prot-A-EuK [Protein A labeled with Europium Cryptate from Cis biointernational, France, product no. 61PRAKLB]) in an aqueous EDTA-solution (100 mM EDTA, 800 mM KF, 0.2% (w/v) bovine serum albumin in 100 mM HEPES/NaOH pH 7.0).
# Chain of Tie2 (Q02763 770-1124 limits assumed, species assumed): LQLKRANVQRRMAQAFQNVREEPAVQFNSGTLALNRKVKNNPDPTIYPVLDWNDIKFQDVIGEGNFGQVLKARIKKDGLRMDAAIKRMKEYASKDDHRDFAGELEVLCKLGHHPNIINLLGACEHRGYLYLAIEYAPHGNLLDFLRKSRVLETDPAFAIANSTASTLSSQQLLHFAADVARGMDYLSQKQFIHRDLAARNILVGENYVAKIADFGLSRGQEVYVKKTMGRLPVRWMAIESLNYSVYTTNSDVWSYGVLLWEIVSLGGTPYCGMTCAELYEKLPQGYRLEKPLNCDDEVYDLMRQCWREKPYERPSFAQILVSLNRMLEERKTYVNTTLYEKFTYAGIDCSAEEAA
IC50 [1] [µM],Selectivity vs. CDK2 [2] [fold],SMILES
< 0.1,>20,"Cc1ccc(C2(C(=O)Nc3ccc(-c4cnc5nc4NCCCNS(=O)(=O)c4cccc(c4)N5)cc3)CC2)cc1 [Example 1, 1-p-Tolyl-cyclopropane-carboxylic acid [4-(13,13-dioxo-13λ^6-thia-2,4,8,12,19-pentaaza-tricyclo[12.3.1.1^3,7]nonadeca-1(18),3(19),4,6, 14,16-hexaen-6-yl)-phenyl]-amide]"
< 0.1,>20,"Cc1ccccc1C1(C(=O)Nc2ccc(-c3cnc4nc3NCCCNS(=O)(=O)c3cccc(c3)N4)cc2)CC1 [Example 2, 1-o-Tolyl-cyclopropane-arboxylic acid [4-(13,13-dioxo-13λ^6-thia-2,4,8,12,19-pentaaza-tricyclo[12.3.1.1^3,7]nonadeca-1(18),3(19),4,6,14,16-hexaen-6-yl)-phenyl]-amide]"
< 0.1,>20,"COc1cccc(C2(C(=O)Nc3ccc(-c4cnc5nc4NCCCNS(=O)(=O)c4cccc(c4)N5)cc3)CC2)c1 [Example 3, 1-(3-Methoxy-phenyl)-cyclopropane-carboxylic acid [4-(13,13-dioxo-13λ^6-thia-2,4,8,12,19-pentaaza-tricyclo[12.3.1.1^3,7]nonadeca-1(18),3(19),4,6,14,16-hexaen-6-yl)-phenyl]-amide]"
< 0.1,>20,"COc1ccc(C2(C(=O)Nc3ccc(-c4cnc5nc4NCCCNS(=O)(=O)c4cccc(c4)N5)cc3)CC2)cc1 [Example 4, 1-(4-Methoxy-phenyl)-cyclopropane-carboxylic acid [4-(13,13-dioxo-13λ^6-thia-2,4,8,12,19-pentaaza-tricyclo[12.3.1.1^3,7]-nonadeca-1(18),3(19),4,6,14,16-hexaen-6-yl)-phenyl]-amide]"
< 0.1,>20,"O=C(Nc1ccc(-c2cnc3nc2NCCCNS(=O)(=O)c2cccc(c2)N3)cc1)C1(c2cccc(Cl)c2)CC1 [Example 5, 1-(3-Chloro-phenyl)-cyclopropane-arboxylic acid [4-(13,13-dioxo-13λ^6-thia-2,4,8,12,19-pentaaza-tricyclo[12.3.1.1^3,7]-nadeca-1(18),3(19),4,6,14,16-hexaen-6-yl)-phenyl]-amide]"
< 0.1,>20,"O=C(Nc1ccc(-c2cnc3nc2NCCCNS(=O)(=O)c2cccc(c2)N3)cc1)C1(c2ccc(Cl)cc2)CC1 [Example 6, 1-(4-Chloro-phenyl)-cyclopropane-carboxylic acid [4-(13,13-dioxo-13λ^6-thia-2,4,8,12,19-pentaaza-tricyclo[12.3.1.1^3,7]-nonadeca-1(18),3(19),4,6,14,16-hexaen-6-yl)-phenyl]-amide]"
< 0.1,>20,"O=C(Nc1ccc(-c2cnc3nc2NCCCNS(=O)(=O)c2cccc(c2)N3)cc1)C1(c2ccccc2F)CC1 [Example 7, 1-(2-Fluoro-phenyl)-cyclopropane-carboxylic acid [4-(13,13-dioxo-13λ^6-thia-2,4,8,12,19-pentaaza-tricyclo[12.3.1.1^3,7]nonadeca-1(18),3(19),4,6,14,16-hexaen-6-yl)-phenyl]-amide]"
< 0.1,>20,"O=C(Nc1ccc(-c2cnc3nc2NCCCNS(=O)(=O)c2cccc(c2)N3)cc1)C1(c2cccc(F)c2)CC1 [Example 8, 1-(3-Fluoro-phenyl)-cyclopropane-carboxylic acid [4-(13,13-dioxo-13λ^6-thia-2,4,8,12,19-pentaaza-tricyclo[12.3.1.1^3,7]nonadeca-1(18),3(19),4,6,14,16-hexaen-6-yl)-phenyl]-amide]"
< 0.1,>20,"O=C(Nc1ccc(-c2cnc3nc2NCCCNS(=O)(=O)c2cccc(c2)N3)cc1)C1(c2ccc(F)cc2)CC1 [Example 9, 1-(4-Fluoro-phenyl)-cyclopropane-carboxylic acid [4-(13,13-dioxo-13λ^6-thia-2,4,8,12,19-pentaaza-tricyclo[12.3.1.1^3.7]nonadeca-1(18),3(19),4,6,14,16-hexaen-6-yl)-phenyl]-amide]"
0.1 to 1,>20,"O=C(Nc1ccc(-c2cnc3nc2NCCCNS(=O)(=O)c2cccc(c2)N3)cc1)C1(c2cccc(C(F)(F)F)c2)CC1 [Example 10, 1-(3-Trifluoromethyl-phenyl)-cyclopropane-carboxylic acid [4-(13,13-dioxo-13λ^6-thia-2,4,8,12,19-pentaaza-tricyclo[12.3.1.1^3,7]nonadeca-1(18),3(19),4,6,14,16-hexaen-6-yl)-phenyl]-amide]"
< 0.1,>20,"O=C(Nc1ccc(-c2cnc3nc2NCCCNS(=O)(=O)c2cccc(c2)N3)cc1)C1(c2ccc(C(F)(F)F)cc2)CC1 [Example 11, 1-(4-Trifluoromethyl-phenyl)-cyclopropane-carboxylic acid [4-(13,13-dioxo-13λ^6-thia-2,4,8,12,19-pentaaza-tricyclo[12.3.1.1^3,7]nonadeca-1(18),3(19),4,6,14,16-hexaen-6-yl)-phenyl]-amide]"
< 0.1,>20,"O=C(Nc1ccc(-c2cnc3nc2NCCCNS(=O)(=O)c2cccc(c2)N3)cc1)C1(c2cc(C(F)(F)F)ccc2F)CC1 [Example 12, 1-(2-Fluoro-5-trifluoromethyl-phenyl)-cyclopropane-carboxylic acid [4-(13,13-dioxo-13λ^6-thia-2,4,8,12,19-pentaaza-tricyclo[12.3.1.1^3,7]-nonadeca-1(18),3(19),4,6,14,16-hexaen-6-yl)-phenyl]-amide]"
< 0.1,>20,"CC(C)(C(=O)Nc1ccc(-c2cnc3nc2NCCCNS(=O)(=O)c2cccc(c2)N3)cc1)c1ccc(Cl)cc1 [Example 13, 2-(4-Chloro-phenyl)-N-[4-(13,13-dioxo-13λ^6-thia-2,4,8,12,19-pentaaza-tricyclo[12.3.1.1^3,7]-nonadeca-1(18),3(19),4,6,14,16-hexaen-6-yl)-phenyl]-isobutyramide]"
